Literature values, collected in US6432453B1, “Dietary supplement containing glycerol ester of conjugated linoleic acid and rosemary extract containing carnosic acid” (Metagenics, Inc., priority 2000, dated 2002).
Read-outs that look alike come from different tables or passages of the source.

Tests used:
[1] = CLA-supplemented subjects, three months, no change of diet
[2] = free fatty acid form

half-life (oxidation) ([2]; 25° C.): 336 h
half-life (oxidation) ([2]; 75° C.): 7 h
Substance: conjugated linoleic acid [CLA]
body fat lost [1]: up to 20%
